Data reported in publication PMC6374824 (International Journal of Endocrinology, 2019).
Entries after “also recorded” stand apart in the source; their conditions may differ.

Experiments:
hIAPP [1] = molecular target: T1, hIAPP (Homo sapiens, UniProt P10997); details: ref [25], cited from earlier work; for inhibition of hIAPP aggregation in vitro: [26]
T1 construct: hormone secreted by β-cells consisting of 37 amino acid residues; purchased ChinaPeptide Co. Ltd. (Shanghai, China); host or cells: chemical synthesis
T1 sequence (P10997 34-70 limits assumed): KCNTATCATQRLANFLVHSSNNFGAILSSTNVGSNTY
Source text: In the present study, a pentapeptide inhibitor Phe-Leu-Pro-Asn-Phe (FLPNF) that contains only five amino acids has been designed. […] After that, the ...

fibrils of hIAPP = details: ref [25]; cited from earlier work
Source text: In the early research, SNNFGA and GAILSS could not completely prevent the formation of fibr ...

hIAPP [2] = molecular target: T1, hIAPP; assay: Thioflavin T fluorescence assay, concentration dependence; type: biochemical; details: PBS, 24 hours, 37°C
Procedure: The stock solutions were aliquoted and stored at -80°C according to the instructions.
The plates were incubated at 37°C for 0, 12, 24, and 48 hours. Finally, the fluorescence image was detected by an XDY-100 fluorescence microscope (Zhongheng, Shanghai, China). Subsequently, the fluorescence intensity values of each group were measured by a Fluoroskan Ascent FL luminescence meter (Thermo Scientific, USA) using an excitation λ of 435 nm and an emission λ of 485 nm. At each time course, the fluorescence intensity values of the control group were set as 1, while the values of test groups relative to the control group were set as fluorescence intensity (A.U.) and used for statistical analysis. Each experiment was repeated thrice.
The fluorescence images and the fluorescence intensity values of each group were collected after incubating for 24 hours. Each experiment was repeated thrice.

INS-1 cells = assay: Cell proliferation assay (MTS), hIAPP cytotoxicity in INS-1 cells
Procedure: The INS-1 cells at a density of 2 × 10^4 were plated in a 96-well plate. […] The untreated control cells received equal fresh medium. The medium of each group contained 0.2 μL DMSO, equal to 0.2% DMSO. Consequently, 10 μL MTS solution was added to each well and incubated for additional 2 hours. The optical density (OD) values were measured at 490 nm using a PowerWave XS2 microplate spectrophotometer (Thermo Scientific, USA). Each experiment was repeated thrice.

hIAPP [3] = molecular target: T1, hIAPP; assay: Biolayer interferometry, FLPNF immobilized; type: binding; details: hIAPP 400 μM (method) / 100 μM (Figure 5 legend)
Procedure: Experiments were performed by Shuangtian Biotech Co. Ltd. FLPNF were reconstituted in PBS (pH = 7.4) and immobilized on aminopropylsilane (APS) biosensors. […] This was followed by a 600 sec dissociation phase in dissociation buffer (50% DMSO+0.05% PBST) in PBS. A response unit represented the bonding height on the biosensor. The association and dissociation curves were analyzed and constructed by Octet K2 biolayer interferometry.

hIAPP [4] = molecular target: T1, hIAPP; assay: Thioflavin T fluorescence assay, time course; type: biochemical; details: for ThT fluorescence intensity compared to hIAPP group, significance: PBS pH 7.4, 37°C, unpaired t-test
hIAPP amyloid fibrils = assay: Transmission electron microscopy of hIAPP amyloid fibrils; type: biochemical, human; details: PBS, 24 hours, 37°C, 2% phosphotungstic acid stain; for hIAPP fibril formation by TEM, with added peptide: 100 μM peptide + 10 μM hIAPP
Procedure: TEM was used to directly observe the relative density and morphological changes of hIAPP amyloid fibrils. […] A volume of 10 μL of each sample was placed on mesh copper grids (Servicebio, Wuhan, China) and was covered by a carbon-stabilized formvar film. After 3 min, excess fluid was removed, and the grids were stained with 2% phosphotungstic acid for 3 min. Samples were analyzed using a HT7700 transmission electron microscope (Hitachi, Japan).

islet amyloid = details: ref [27]; cited from earlier work
Source text: In the present study, a pentapeptide inhibitor Phe-Leu-Pro-Asn-Phe (FLPNF) that contains only five amino acids has been designed. […] Even so, FLPNF was optimally designed and consisted of ...

NFGAILPP
inhibition of hIAPP aggregation in vitro (hIAPP [1]): can inhibit hIAPP aggregation in vitro

GAILSS
inhibition of hIAPP aggregation in vitro (hIAPP [1]): can inhibit hIAPP aggregation in vitro
prevention of hIAPP fibril formation on TEM images (fibrils of hIAPP): could not completely prevent the formation of fibrils of hIAPP

Phe-Leu-Pro-Asn-Phe [FLPNF]
ThT green fluorescence signal with increasing concentrations (fluorescence microscope) (hIAPP [2]; 0, 20, 50, 100, 200, 400 μM FLPNF + 10 μM hIAPP): gradually decreased
ThT fluorescence intensity with increasing concentrations (luminescence meter) (hIAPP [2]; 0, 20, 50, 100, 200, 400 μM FLPNF + 10 μM hIAPP, repeated thrice): gradually reduced
ThT fluorescence intensity compared to 0 μM group (hIAPP [2]; 100, 200 and 400 μM FLPNF + 10 μM hIAPP, P < 0.05, unpaired t-test, repeated thrice): significantly lowered
INS-1 cell viability compared to hIAPP group (INS-1 cells; 100 μM FLPNF + 10 μM hIAPP, 24 hours, OD 490 nm, P < 0.05, unpaired t-test, repeated thrice): significant improvement in cell viability
INS-1 cell viability, FLPNF alone (INS-1 cells; FLPNF alone, no hIAPP, MTS): no direct effect on the viability of INS-1 cells; also recorded: no direct effect on cell viability
INS-1 cell viability compared to control group, with FLPNF + hIAPP (INS-1 cells; hIAPP with FLPNF at 1 : 10 ratio, 24 hours, MTS): still lower
association response (response units) (hIAPP [3]; FLPNF immobilized on APS biosensor, PBS pH 7.4, association 300 sec, Octet K2): approximately 0.02 nm
interaction between FLPNF and hIAPP (hIAPP [3]; biolayer interferometry, immobilized FLPNF): strong interaction
dissociation (hIAPP [3]; dissociation phase 600 sec, 50% DMSO+0.05% PBST in PBS, Octet K2): tardily reversible; also recorded: slowly dropped to 0
ThT fluorescence intensity compared to hIAPP group, significance (hIAPP [4]; 100 μM FLPNF + 10 μM hIAPP, 24 h, P < 0.05, ex 435 nm, em 485 nm, repeated thrice): significantly lowered
ThT fluorescence intensity compared to hIAPP group, significance (hIAPP [4]; 100 μM FLPNF + 10 μM hIAPP, 48 h, P < 0.01, ex 435 nm, em 485 nm, repeated thrice): significantly lowered
ThT fluorescence intensity compared to hIAPP alone (luminescence meter) (hIAPP [4]; 100 μM FLPNF + 10 μM hIAPP, PBS pH 7.4, 20 μM ThT, 37°C, 12, 24 and 48 hours, ex 435 nm, em 485 nm, repeated thrice): decreased the fluorescence intensity compared to hIAPP alone
ThT fluorescence signal (fluorescence microscope) (hIAPP [4]; 100 μM peptide + 10 μM hIAPP, PBS pH 7.4, 20 μM ThT, 37°C, 24 and 48 hours): strong reduction of the fluorescence signal
inhibition of hIAPP amyloid aggregation (hIAPP [4]; 10 : 1 molar ratio FLPNF to hIAPP, in vitro, ThT): strongly inhibited the amyloid aggregation of hIAPP
inhibitory effect at 48 hours (hIAPP [4]; in vitro, 48 hours): still had an inhibitory effect
inhibition of amyloid formation (hIAPP [4]; tenfold molar excess to hIAPP, PBS, 24 hours): partially inhibited amyloid formation
hIAPP fibril formation by TEM, with added peptide (hIAPP amyloid fibrils): reduced the amounts of fibril formation; also recorded: not completely prevented but were reduced in density; also recorded: less numerous but appeared to be more thickened

SNNFGA
inhibition of hIAPP aggregation in vitro (hIAPP [1]): can inhibit hIAPP aggregation in vitro
prevention of hIAPP fibril formation on TEM images (fibrils of hIAPP): could not completely prevent the formation of fibrils of hIAPP

NFGAIL [reference compound]
effect on hIAPP fibril formation (hIAPP [1]; residues 22–27 of hIAPP, negative control): could enhance hIAPP fibril formation
ThT fluorescence signal compared to 0 μM group (hIAPP [2]; any concentration of NFGAIL (20-400 μM) + 10 μM hIAPP): no reduction
reduction of cytotoxic effects of hIAPP in INS-1 cells (INS-1 cells; 100 μM NFGAIL + 10 μM hIAPP, 24 hours, MTS, OD 490 nm): no effect of reducing the cytotoxic effects of hIAPP
ThT fluorescence intensity compared to hIAPP group (luminescence meter) (hIAPP [4]; 100 μM NFGAIL + 10 μM hIAPP, PBS pH 7.4, 20 μM ThT, 37°C, ex 435 nm, em 485 nm, repeated thrice): did not decrease
hIAPP fibril formation by TEM, with added peptide (hIAPP amyloid fibrils): did not reduce or even increase the amount of the fibril formation; also recorded: No reduction of the fibrils

human islet amyloid polypeptide (KCNTATCATQRLANFLVHSSNNFGAILSSTNVGSNTY; Islet amyloid polypeptide; UniProt P10997 34-70, looked up) [hIAPP, hormone secreted by β-cells consisting of 37 amino acid residues]
INS-1 cell viability compared to control group (INS-1 cells; 10 μM hIAPP alone, 24 hours, OD 490 nm, P < 0.001, unpaired t-test, repeated thrice): significantly decreased the cell viability
fibril morphology of hIAPP alone by TEM (hIAPP amyloid fibrils; 10 μM hIAPP alone): typical dense fibrils; also recorded: typical morphology and formation of dense aggregates

D-ANFLVH
reduction of amyloid aggregates in vivo (islet amyloid): could reduce the islet amyloid accumulation in vivo; also recorded: can reduce the formation of amyloid aggregates in vivo

NYGAILSS
inhibition of hIAPP aggregation in vitro (hIAPP [1]): can inhibit hIAPP aggregation in vitro
